Format in all cases: functional
The subject of assay [1] is Staphylococcus aureus. As to the kind of experiment: Antibacterial activity against Staphylococcus aureus 209p ATCC 6538P assessed as bacterial growth inhibition incubated for 1 to 2 days by serial dilution method. To be noted: time 1-2 day.
Assay [2] has as its system Staphylococcus aureus. As to the kind of experiment: Antibacterial activity against Staphylococcus aureus assessed as bacterial growth inhibition.
Assay [3] relates to Staphylococcus epidermidis. As to the kind of experiment: Antibacterial activity against Staphylococcus epidermidis assessed as bacterial growth inhibition by broth dilution method. (Dilution methods test growth across graded concentrations, often in twofold steps.)
Assay [4] relates to Bacillus subtilis. As to the kind of experiment: Antibacterial activity against Bacillus subtilis assessed as bacterial growth inhibition incubated for 18 to 20 hrs by broth microdilution method. Conditions: time 18-20 hrs.
The subject of assay [5] is Escherichia coli. As to the kind of experiment: Antibacterial activity against Escherichia coli assessed as bacterial growth inhibition.
Assay [6] relates to Bacillus subtilis. As to the kind of experiment: Antibacterial activity against Bacillus subtilis assessed as bacterial growth inhibition.
The subject of assay [7] is Escherichia coli. As to the kind of experiment: Antibacterial activity against Escherichia coli JM109 assessed as bacterial growth inhibition incubated for 18 to 20 hrs by broth microdilution method. To be noted: time 18-20 hrs.
For assay [8], the system named is Staphylococcus aureus. As to the kind of experiment: Antibacterial activity against Staphylococcus aureus assessed as bacterial growth inhibition by broth dilution method.
In assay [9] the test system is Staphylococcus aureus. As to the kind of experiment: Antibacterial activity against multidrug-resistant Staphylococcus aureus clinical isolate assessed as bacterial growth inhibition by broth dilution method.
Assay [10] relates to Staphylococcus aureus. As to the kind of experiment: Potency index, ratio of Norfloxacin MIC to test compound MIC for antibacterial activity against Staphylococcus aureus assessed as bacterial growth inhibition by broth dilution method.
Assay [11] concerns Staphylococcus aureus. As to the kind of experiment: Antibacterial activity against methicillin-resistant Staphylococcus aureus assessed as bacterial growth inhibition by agar dilution method. In general terms: Agar dilution tests growth on a series of plates holding different concentrations.
For assay [12], the system named is Salmonella enterica. As to the kind of experiment: Antibacterial activity against Salmonella enterica assessed as bacterial growth inhibition incubated for 24 hrs by serial dilution method.
For assay [13], the system named is Bacillus subtilis. As to the kind of experiment: Antibacterial activity against Bacillus subtilis assessed as bacterial growth inhibition incubated for 24 hrs by serial dilution method.
The test system of assay [14] is Escherichia coli. As to the kind of experiment: Antibacterial activity against Escherichia coli assessed as bacterial growth inhibition incubated for 24 hrs by serial dilution method.
Assay [15] concerns Staphylococcus aureus. As to the kind of experiment: Antibacterial activity against Staphylococcus aureus assessed as bacterial growth inhibition incubated for 24 hrs by serial dilution method.
Assay [16] relates to Pseudomonas aeruginosa. As to the kind of experiment: Antibacterial activity against Pseudomonas aeruginosa assessed as bacterial growth inhibition incubated for 24 hrs by serial dilution method.
Assay [17] deals with Staphylococcus aureus. As to the kind of experiment: Potency index, ratio of streptomycin MIC to test compound MIC for antibacterial activity against Staphylococcus aureus assessed as bacterial growth inhibition by broth dilution method.
Assay [18] concerns Staphylococcus epidermidis. As to the kind of experiment: Potency index, ratio of streptomycin MIC to test compound MIC for antibacterial activity against Staphylococcus epidermidis assessed as bacterial growth inhibition by broth dilution method.
The subject of assay [19] is Pseudomonas aeruginosa. As to the kind of experiment: Antibacterial activity against Pseudomonas aeruginosa assessed as bacterial growth inhibition by serial dilution method.
In assay [20] the test system is Escherichia coli. As to the kind of experiment: Antibacterial activity against Escherichia coli MTCC 1687 assessed as bacterial growth inhibition by serial dilution method.
Assay [21] deals with Staphylococcus aureus. As to the kind of experiment: Antibacterial activity against Staphylococcus aureus MTCC 737 assessed as bacterial growth inhibition by serial dilution method.
Assay [22] has as its system Escherichia coli. As to the kind of experiment: Potency index, ratio of Ciprofloxacin MIC to test compound MIC for antibacterial activity against Escherichia coli MTCC 1687 assessed as bacterial growth inhibition by serial dilution method.
Assay [23] deals with Staphylococcus aureus. As to the kind of experiment: Potency index, ratio of Ciprofloxacin MIC to test compound MIC for antibacterial activity against Staphylococcus aureus MTCC 737 assessed as bacterial growth inhibition by serial dilution method.
For assay [24], the system named is Pseudomonas aeruginosa. As to the kind of experiment: Potency index, ratio of Ciprofloxacin MIC to test compound MIC for antibacterial activity against Pseudomonas aeruginosa assessed as bacterial growth inhibition by serial dilution method.
Assay [25] relates to Staphylococcus aureus. As to the kind of experiment: Antibacterial activity against methicillin-resistant Staphylococcus aureus assessed as bacterial growth inhibition incubated for 18 hrs by absorbance based assay.
The subject of assay [26] is Klebsiella pneumoniae. As to the kind of experiment: Antibacterial activity against multi-drug Klebsiella pneumoniae assessed as bacterial growth inhibition incubated for 18 hrs by absorbance based assay.
Assay [27] relates to Escherichia coli. As to the kind of experiment: Antibacterial activity against Escherichia coli assessed as bacterial growth inhibition incubated for 18 hrs by absorbance based assay.
Assay [28] has as its system Acinetobacter baumannii. As to the kind of experiment: Antibacterial activity against Acinetobacter baumannii assessed as bacterial growth inhibition incubated for 18 hrs by absorbance based assay.
In assay [29] the test system is Staphylococcus aureus. As to the kind of experiment: Antibacterial activity against Staphylococcus aureus MTCC 7443 assessed as bacterial growth inhibition incubated for 24 hrs by serial dilution method.
The subject of assay [30] is Bacillus subtilis. As to the kind of experiment: Antibacterial activity against Bacillus subtilis MTCC 441 assessed as bacterial growth inhibition incubated for 24 hrs by serial dilution method.
Assay [31] concerns Bacillus subtilis. As to the kind of experiment: Antibacterial activity against Bacillus subtilis ATCC 6633 assessed as bacterial growth inhibition incubated for 18 to 24 hrs by turbidimetry. Conditions: time 18-24 hrs.
The test system of assay [32] is Escherichia coli. As to the kind of experiment: Antibacterial activity against Escherichia coli ATCC 25922 assessed as bacterial growth inhibition incubated for 18 to 24 hrs by turbidimetry. Conditions: time 18-24 hrs.
Assay [33] deals with Staphylococcus aureus. As to the kind of experiment: Antibacterial activity against Staphylococcus aureus ATCC 25923 assessed as bacterial growth inhibition incubated for 18 to 24 hrs by turbidimetry. Conditions: time 18-24 hrs.
Assay [34] relates to Pseudomonas aeruginosa. As to the kind of experiment: Antibacterial activity against Pseudomonas aeruginosa ATCC 27853 assessed as bacterial growth inhibition incubated for 18 to 24 hrs by turbidimetry. Conditions: time 18-24 hrs.

Molecules are shown by their SMILES. Converted amounts (≈) assume the structure as drawn.

With `CN[C@@H]1[C@H](O[C@H]2[C@H](O[C@H]3[C@H](O)[C@@H](O)[C@H](N=C(N)N)[C@@H](O)[C@@H]3N=C(N)N)O[C@@H](C)[C@]2(O)C=O)O[C@@H](CO)[C@H](O)[C@H]1O` [STREPTOMYCIN], the minimal inhibitory concentration (MIC) (usually the lowest concentration that inhibits growth of the organism) in assay [1] amounted to 1.89 µg/mL (≈ 3.25 µM); in [2], 6.25 µg/mL (≈ 10.7 µM); in assay [3], 4.68 µg/mL (≈ 8.05 µM); in assay [4], 2 µg/mL (≈ 3.44 µM); in [5] it was 6.25 µg/mL (≈ 10.7 µM); in assay [6], 6.25 µg/mL (≈ 10.7 µM). The MIC turned out to be 1 µg/mL (≈ 1.72 µM) in assay [7] and 9.36 µg/mL (≈ 16.1 µM) in assay [8].

For `CC(=O)OC[C@@H]1O[C@H](n2cc(Cn3c(=O)cc(C)n(CCCCCCCC[P+](c4ccccc4)(c4ccccc4)c4ccccc4)c3=O)nn2)[C@@H](OC(C)=O)[C@H]1OC(C)=O.[Br-]`, the minimal inhibitory concentration (MIC) in assay [9] and in assay [8] was 1 µg/mL in each case. For the same compound, in assay [10], the Ratio was determined as 7.5.

For `COc1cc(/C=C/c2ccc(OCc3cn(-c4ccc(C(=O)O)cc4)nn3)cc2)cc(OC)c1`, the MIC in assay [11] was determined as 1.2 µg/mL (≈ 2.62 µM).

For `CC(C)C[C@H](NC(=O)OC(C)(C)C)C(=O)OCc1cn(Cc2ccc(F)cc2)nn1`, the MIC in [12], in assay [13], in assay [14], in assay [15] and in assay [16] was 3.12 µg/mL (≈ 7.42 µM) each time.

On to `CC1(C)O[C@@H]2[C@@H](CC[C@]3(COC(C)(C)O3)[C@H]2OCc2cn(-c3cccc4ccccc34)nn2)O1`, for which the Ratio in assay [17] and in assay [18] was 4 in each case. Moreover, the minimum inhibitory concentration (MIC) amounted to 1.17 µg/mL (≈ 2.51 µM) in assay [3] and 2.34 µg/mL (≈ 5.03 µM) in assay [8].

As for `COc1cccc2cc(C(=O)c3cn(-c4ccc(Cl)cc4)nn3)c(=O)oc12`, the minimal inhibitory concentration (MIC) in assay [19], in [20] and in [21] was 6.25 µg/mL (≈ 16.4 µM) throughout. Besides, the Ratio in assay [22], in assay [23] and in assay [24] was 2 in each case.

Take `Cc1ccc(S(=O)(=O)OCCn2cc(COc3cccc4cccnc34)nn2)cc1`: the MIC in assay [25], in assay [26], in [27] and in assay [28] was 75.4 µg/mL (≈ 178 µM) in each case.

For the compound `CC(C)(NS(=O)(=O)c1ccc(Br)cc1)c1cn(-c2ccc(Br)cc2)nn1`, the MIC in [29] and in assay [30] was 12.5 µg/mL (≈ 25 µM) throughout.

For `Nc1c(C(=O)N2CCN(c3cc4c(cc3F)c(=O)c(C(=O)O)cn4C3CC3)CC2)nnn1-c1ccccc1`, the MIC in [31], in assay [32], in assay [33] and in [34] was 15.6 µg/mL (≈ 30.1 µM) in each case.
